Publication PMC10620772, “Design, synthesis, and biological evaluation of new pyrimidine-5-carbonitrile derivatives as novel anti-cancer, dual EGFR^WT/COX-2 inhibitors with docking studies” (RSC Advances, 2023)

Key:
Type in all cases: cell-based, human
[1] = system: CCRF-CEM; assay: NCI60 antitumor screening; settings: Homo sapiens; 10 μM single dose; CCRF-CEM (leukaemia); read-out: growth inhibition percent (GI%)
[2] = system: HL-60(TB); assay: NCI60 antitumor screening; settings: Homo sapiens; 10 μM single dose; HL-60(TB) (leukaemia); read-out: growth inhibition percent (GI%)
[3] = system: MOLT-4; assay: NCI60 antitumor screening; settings: Homo sapiens; 10 μM single dose; MOLT-4 (leukaemia); read-out: growth inhibition percent (GI%)
[4] = system: EKVX; assay: NCI60 antitumor screening; settings: Homo sapiens; 10 μM single dose; EKVX (non-small cell lung cancer); read-out: growth inhibition percent (GI%)
[5] = system: NCI-H23; assay: NCI60 antitumor screening; settings: Homo sapiens; 10 μM single dose; NCI-H23 (non-small cell lung cancer); read-out: growth inhibition percent (GI%)
[6] = system: NCI-H322M; assay: NCI60 antitumor screening; settings: Homo sapiens; 10 μM single dose; NCI-H322M (non-small cell lung cancer); read-out: growth inhibition percent (GI%)
[7] = system: NCI-H460; assay: NCI60 antitumor screening; settings: Homo sapiens; 10 μM single dose; NCI-H460 (non-small cell lung cancer); read-out: growth inhibition percent (GI%)
[8] = system: COLO 205; assay: NCI60 antitumor screening; settings: Homo sapiens; 10 μM single dose; COLO 205 (colon cancer); read-out: growth inhibition percent (GI%)
[9] = system: HCC-2998; assay: NCI60 antitumor screening; settings: Homo sapiens; 10 μM single dose; HCC-2998 (colon cancer); read-out: growth inhibition percent (GI%)
[10] = system: HCT-116; assay: NCI60 antitumor screening; settings: Homo sapiens; 10 μM single dose; HCT-116 (colon cancer); read-out: growth inhibition percent (GI%)
[11] = system: HCT-15; assay: NCI60 antitumor screening; settings: Homo sapiens; 10 μM single dose; HCT-15 (colon cancer); read-out: growth inhibition percent (GI%)
[12] = system: HT29; assay: NCI60 antitumor screening; settings: Homo sapiens, HT-29; 10 μM single dose; HT29 (colon cancer); read-out: growth inhibition percent (GI%)
[13] = system: SF-268; assay: NCI60 antitumor screening; settings: Homo sapiens; 10 μM single dose; SF-268 (CNS cancer); read-out: growth inhibition percent (GI%)
[14] = system: SF-295; assay: NCI60 antitumor screening; settings: Homo sapiens; 10 μM single dose; SF-295 (CNS cancer); read-out: growth inhibition percent (GI%)
[15] = system: SF-539; assay: NCI60 antitumor screening; settings: for inhibition at 10 µM: Homo sapiens, 10 μM single dose, SF-539 (CNS cancer), read-out: growth inhibition percent (GI%)
[16] = system: M14; assay: NCI60 antitumor screening; settings: Homo sapiens; 10 μM single dose; M14 (melanoma); read-out: growth inhibition percent (GI%)
[17] = system: SK-MEL-2; assay: NCI60 antitumor screening; settings: Homo sapiens; 10 μM single dose; SK-MEL-2 (melanoma); read-out: growth inhibition percent (GI%)
[18] = system: SK-MEL-28; assay: NCI60 antitumor screening; settings: Homo sapiens; 10 μM single dose; SK-MEL-28 (melanoma); read-out: growth inhibition percent (GI%)
[19] = system: SK-MEL-5; assay: NCI60 antitumor screening; settings: Homo sapiens; 10 μM single dose; SK-MEL-5 (melanoma); read-out: growth inhibition percent (GI%)
[20] = system: UACC-62; assay: NCI60 antitumor screening; settings: Homo sapiens; 10 μM single dose; UACC-62 (melanoma); read-out: growth inhibition percent (GI%)
[21] = system: IGROV1; assay: NCI60 antitumor screening; settings: Homo sapiens, IGROV-1; 10 μM single dose; IGROV1 (ovarian cancer); read-out: growth inhibition percent (GI%)
[22] = system: OVCAR-3; assay: NCI60 antitumor screening; settings: Homo sapiens; 10 μM single dose; OVCAR-3 (ovarian cancer); read-out: growth inhibition percent (GI%)
[23] = system: OVCAR-4; assay: NCI60 antitumor screening; settings: for inhibition at 10 µM: Homo sapiens, 10 μM single dose, OVCAR-4 (ovarian cancer), read-out: growth inhibition percent (GI%)
[24] = system: OVCAR-5; assay: NCI60 antitumor screening; settings: Homo sapiens; 10 μM single dose; OVCAR-5 (ovarian cancer); read-out: growth inhibition percent (GI%)
[25] = system: NCI/ADR-RES; assay: NCI60 antitumor screening; settings: Homo sapiens; 10 μM single dose; NCI/ADR-RES (ovarian cancer); read-out: growth inhibition percent (GI%)
[26] = system: A498; assay: NCI60 antitumor screening; settings: Homo sapiens; 10 μM single dose; A498 (renal cancer); read-out: growth inhibition percent (GI%)
[27] = system: ACHN; assay: NCI60 antitumor screening; settings: Homo sapiens; 10 μM single dose; ACHN (renal cancer); read-out: growth inhibition percent (GI%)
[28] = system: SN12C; assay: NCI60 antitumor screening; settings: Homo sapiens; 10 μM single dose; SN12C (renal cancer); read-out: growth inhibition percent (GI%)
[29] = system: UO-31; assay: NCI60 antitumor screening; settings: Homo sapiens; 10 μM single dose; UO-31 (renal cancer); read-out: growth inhibition percent (GI%)
[30] = system: PC-3; assay: NCI60 antitumor screening; settings: Homo sapiens; 10 μM single dose; PC-3 (prostate cancer); read-out: growth inhibition percent (GI%)
[31] = system: HS 578T; assay: NCI60 antitumor screening; settings: for inhibition at 10 µM: Homo sapiens, 10 μM single dose, HS 578T (breast cancer), read-out: growth inhibition percent (GI%)
[32] = system: BT-549; assay: NCI60 antitumor screening; settings: Homo sapiens; 10 μM single dose; BT-549 (breast cancer); read-out: growth inhibition percent (GI%)
[33] = system: T-47D; assay: NCI60 antitumor screening; settings: Homo sapiens, T47D; 10 μM single dose; T-47D (breast cancer); read-out: growth inhibition percent (GI%)
[34] = system: NCI60 cell lines panel; assay: NCI60 antitumor screening, full panel; settings: for inhibition at 10 µM: Homo sapiens, 10 μM single dose, mean over NCI60 cell lines, read-out: Mean growth inhibition percent (GI%)
Summary of the method: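 Percent growth inhibition (GI%) was recorded for each of the NCI60 lines, spanning leukaemia, lung, colon, CNS, melanoma, ovarian, renal, prostate and breast cancers, after exposure to compounds at one concentration, 10 μM.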

Structure (SMILES) | inhibition at 10 µM [1] [%] | inhibition at 10 µM [2] [%] | inhibition at 10 µM [3] [%] | inhibition at 10 µM [4] [%] | inhibition at 10 µM [5] [%] | inhibition at 10 µM [6] [%] | inhibition at 10 µM [7] [%] | inhibition at 10 µM [8] [%] | inhibition at 10 µM [9] [%] | inhibition at 10 µM [10] [%] | inhibition at 10 µM [11] [%] | inhibition at 10 µM [12] [%] | inhibition at 10 µM [13] [%] | inhibition at 10 µM [14] [%] | inhibition at 10 µM [15] [%] | inhibition at 10 µM [16] [%] | inhibition at 10 µM [17] [%] | inhibition at 10 µM [18] [%] | inhibition at 10 µM [19] [%] | inhibition at 10 µM [20] [%] | other results
CN1CCN(c2nc(SCc3ccc(F)cc3)nc(-c3ccc(F)cc3)c2C#N)CC1 [4j, 2-((4-Fluorobenzyl)thio)-4-(4-fluorophenyl)-6-(4-methylpiperazin-1-yl)pyrimidine-5-carbonitrile] | < 10 | < 10 | < 10 | 18.4 | 22.2 | 24.6 | < 10 | < 10 | < 10 | 25.3 | < 10 | < 10 | 15.8 | 56.8 | 54.8 | 10.4 | < 10 | 16.2 | < 10 | 22.5 | GI% ([15]; 10 μM one-dose, Table 1): — (GI value > 70%); inhibition at 10 µM [21]: 16.9%; inhibition at 10 µM [22]: 16.1%; GI% ([23]; 10 μM one-dose, Table 1): — (GI value > 70%); inhibition at 10 µM [23]: 24.1%; inhibition at 10 µM [24]: 17.4%; inhibition at 10 µM [25]: 42.9%; inhibition at 10 µM [26]: < 10%; inhibition at 10 µM [27]: 39.1%; inhibition at 10 µM [28]: 20.5%; inhibition at 10 µM [29]: 30.1%; inhibition at 10 µM [30]: 32.3%; GI% ([31]; 10 μM one-dose, Table 1): — (GI value > 70%); inhibition at 10 µM [31]: 60.4%; inhibition at 10 µM [32]: 32%; inhibition at 10 µM [33]: 18.3%; inhibition at 10 µM [34]: 25.1%
Cc1ccc(CSc2nc(-c3ccc(F)cc3)c(C#N)c(N3CCNCC3)n2)cc1 [4h, 4-(4-Fluorophenyl)-2-((4-methylbenzyl)thio)-6-(piperazin-1-yl)pyrimidine-5-carbonitrile] | < 10 | < 10 | < 10 | < 10 | < 10 | < 10 | < 10 | < 10 | < 10 | < 10 | < 10 | < 10 | < 10 | < 10 | < 10 | < 10 | < 10 | < 10 | < 10 | < 10 | inhibition at 10 µM [21]: < 10%; inhibition at 10 µM [22]: < 10%; inhibition at 10 µM [23]: < 10%; inhibition at 10 µM [24]: < 10%; inhibition at 10 µM [25]: < 10%; inhibition at 10 µM [26]: < 10%; inhibition at 10 µM [27]: < 10%; inhibition at 10 µM [28]: < 10%; inhibition at 10 µM [29]: 12.1%; inhibition at 10 µM [30]: < 10%; inhibition at 10 µM [31]: 10.1%; inhibition at 10 µM [32]: < 10%; inhibition at 10 µM [33]: < 10%; One-dose activity over the NCI60 panel ([34]; 10 μM): inactive; inhibition at 10 µM [34]: < 10%
N#Cc1c(-c2ccc(F)cc2)nc(SCc2ccccc2)nc1N1CCN(c2ccccc2)CC1 [4m, 2-(Benzylthio)-4-(4-fluorophenyl)-6-(4-phenylpiperazin-1-yl) pyrimidine-5-carbonitrile] | 11.1 | < 10 | < 10 | < 10 | < 10 | < 10 | < 10 | < 10 | < 10 | < 10 | 10.8 | < 10 | < 10 | < 10 | < 10 | < 10 | < 10 | < 10 | < 10 | 16.2 | inhibition at 10 µM [21]: < 10%; inhibition at 10 µM [22]: < 10%; inhibition at 10 µM [23]: < 10%; inhibition at 10 µM [24]: < 10%; inhibition at 10 µM [25]: < 10%; inhibition at 10 µM [26]: < 10%; inhibition at 10 µM [27]: < 10%; inhibition at 10 µM [28]: < 10%; inhibition at 10 µM [29]: < 10%; inhibition at 10 µM [30]: < 10%; inhibition at 10 µM [31]: < 10%; inhibition at 10 µM [32]: < 10%; inhibition at 10 µM [33]: 15.1%; inhibition at 10 µM [34]: < 10%
